The structures appear in SMILES notation.

We go through 19 compounds from US20240262807A1, “COMPOUND USED AS BCR-ABL INHIBITOR” (CHIA TAI TIANQING PHARMACEUTICAL GROUP CO., LTD., priority 2021, published 2024).

For data set [1], the target named is T1, Ba/F3-BCR-ABL1-T315I-C3 cells (Homo sapiens, UniProt P00519, T315I, cells depend on it).
T1 construct: fused on or other part: P11274 (Breakpoint cluster region protein)
Description: Inhibitory effect of compounds on proliferation of BCR-ABL T315I-transfected Ba/F3 cells (CCK-8). Format: cell-based. The following applies: 72 h with compound, CCK-8, 5% serum, read-out: IC50 (nM) Ba/F3-BCR-ABL1 T315I. The protocol: Ba/F3-BCR-ABL1-T315I-C3 cells in logarithmic growth phase and good cell condition were added to a centrifuge tube and centrifuged at 1000 rpm for 5 min in a low speed centrifuge. The supernatant was discarded, and 5 mL of complete medium (RPMI 1640 basic medium+10% FBS) was added using a pipette for cell resuspension. The cells were counted using a cell counter, diluted with complete medium to a cell density of 6×10^4 cells/mL, and an equivalent amount of RPMI 1640 basic medium was added to adjust the serum concentration to 5% and the cell density to 3×10^4 cells/mL for plate seeding. The cells were seeded on a 96-well plate at 100 μL/well using a multi-channel pipette and cultured in a cell incubator at 37° C. 5% CO2 and saturated humidity. After 24 h incubation, compounds were loaded using a nanoliter pipettor, 8 concentrations (1000 nM, 250 nM, 63 nM, 16 nM, 3.9 nM, 0.98 nM, 0.24 nM, 0.061 nM) were set for each compound, and 2 replicate wells were set for each concentration; cells with no compounds added were taken as a negative control, and a plating medium with no cells added was taken as a blank control. After 72 h. […] Inhibition rate (%)=(mean value of negative control group−mean value of experimental group)/(mean value of negative control group−mean value of blank group)×100%. A dose-response curve was fitted by four-parameter analysis, with the logarithm of compound concentration serving as abscissa and inhibition rate serving as ordinate, such that ICso was calculated.

Another data set concerns K562 cells. Briefly: Inhibitory effect of compounds on proliferation of K562 cells (CCK-8). The class given is cell-based. The conditions noted are these: Homo sapiens, 72 h with compound, CCK-8, 5% serum. The protocol:
K562 cells in logarithmic growth phase and good cell condition were added to a centrifuge tube and centrifuged at 1000 rpm for 5 min in a low speed centrifuge. […] The cells were seeded on a 96-well plate at 100 µL/well using a multi-channel pipette and cultured in a cell incubator at 37° ° C. 5% CO2 and saturated humidity. […] Inhibition rate (%)=(mean value of negative control group−mean value of experimental group)/(mean value of negative control group−mean value of blank group)×100%. A dose-response curve was fitted by four-parameter analysis, with the logarithm of compound concentration serving as abscissa and inhibition rate serving as ordinate, such that IC50 was calculated.

Data set [2] can be described thus: Evaluation of pharmacokinetics in mice. Format: in vivo. The following applies: mouse, plasma, po, ICR mice; for bioavailability: ig 10 mg/kg, (intragastric AUC×intravenous dosage)/(intravenous AUC×intragastric dosage)×100%, read-out: Fabs(%) absolute bioavailability; for Cmax / Tmax / half-life / AUC(0-t) / MRT last: ig, 10 mg/kg; for AUC(0-t): read-out: AUC(0-24); for MRT last: read-out: MRT(0-24). The protocol: ICR mice (purchased from Shanghai Sippe-Bk Lab Animal Co., Ltd.) of 18-22 g were randomized into groups of 9 after 3-5 days of acclimatization and administered with the compounds at a dose of 10 mg/kg by intragastric administration. The animals to be tested (ICR mice) were fasted overnight before administration and food was provided 4 h after administration, and water was freely drunk before and after the experiment and during the experiment. After intragastric administration, about 0.1 mL of blood was collected from the orbit at 0.25 (15 min), 0.5 (30 min), 1, 2, 3, 4, 6, 8, 10, and 24 h (Each mouse was subjected to blood collection at 3-4 time points, with three mice per time point). The blood samples were mixed with EDTA-K2 anticoagulant, transferred to a centrifuge within 30 min, and then centrifuged at 4000 rpm for 10 min at 4° C. to separate the plasma. All the plasma samples were collected and immediately stored at −20° C. for testing.
300 μL of acetonitrile solution containing an internal standard (20 ng/ml diazepam) was added to 30 μL of the plasma sample and standard curve sample. The mixture was shaken and mixed well for 5 min, and centrifuged at 13.000 rpm for 10 min. 70 μL of supernatant was taken and diluted with 70 μL of ultrapure water. After being mixed well, 1 μL of the resulting sample was subjected to LC/MS/MS, and a chromatogram was recorded.
Oral exposure of the compounds was evaluated by in vivo pharmacokinetic experiments in mice. The relevant pharmacokinetic parameters were fitted by using DAS3.2.5 software, where absolute bioavailability Fabs(%)=(intragastric AUC×intravenous dosage)/(intravenous AUC×intragastric dosage)×100%.

For `Cn1ccc(-c2cc(C(=O)Nc3ccc(OC(F)(F)Cl)cc3)cnc2N2CCOCC2)cc1=O` [Compound 7], the GI50 in data set [1] was 16 nM. In the data set with K562 cells, the IC50 is 11 nM. Moreover, in data set [2], the bioavailability worked out at 74.1%, the Cmax turned out to be 772 ng/mL, the Tmax worked out at 3 h and the half-life is 1.05 h. Moreover, in data set [2], the AUC(0-t) came out at 2850 ng·h/mL and the MRT last came to 3.03 h.

With `Cn1ccc(-c2cc(C(=O)Nc3ccc(OC(F)(F)Cl)cc3)cnc2N2CCCC2)cc1=O` [Compound 15], the GI50 in data set [1] is 9.6 nM. Besides, the IC50 with K562 cells is 3.1 nM. Also, in data set [2], the bioavailability was determined as 106%, the highest level (Cmax) was 2330 ng/mL, the Tmax is 2 h and the half-life is 2.12 h. In data set [2], the AUC(0-t) turned out to be 12300 ng·h/mL and the MRT last is 3.64 h.

Regarding `Cn1ccc(-c2cc(C(=O)Nc3ccc(OC(F)(F)Cl)cc3)cnc2N2CC[C@@H](F)C2)cc1=O` [Compound 16], in data set [1], the GI50 was 4.7 nM. For the same compound, the IC50 in the data set on K562 cells worked out at 2.1 nM. In data set [2], the bioavailability came to 93.2%, the Cmax came to 1880 ng/mL, the time of peak concentration (Tmax) worked out at 3 h and the half-life was 1.46 h. Moreover, in data set [2], the AUC(0-t) worked out at 9690 ng·h/mL and the MRT last is 3.33 h.

On to `CN(C)c1ncc(C(=O)Nc2ccc(OC(F)(F)Cl)cc2)cc1-c1cc(=O)n(C)cn1` [Compound 61], for which the GI50 in data set [1] was found to be 3 nM. Besides, the IC50 in the data set with K562 cells was found to be 5.6 nM. Moreover, in data set [2], the bioavailability amounted to 95.1%, the peak level (Cmax) was 3200 ng/mL, the Tmax amounted to 2 h and the half-life was 10.4 h. For the same compound, in data set [2], the AUC(0-t) amounted to 24100 ng·h/mL and the MRT last was determined as 4.83 h.

Take `CN1CCc2cc(-c3cc(C(=O)Nc4ccc(OC(F)(F)Cl)cc4)cnc3N3CC[C@@H](O)C3)[nH]c2C1=O` [Compound 94]: the GI50 in data set [1] was 0.88 nM. Besides, the IC50 with K562 cells is 0.71 nM.

Turning to `O=C(Nc1ccc(OC(F)(F)Cl)cc1)c1cnc(N2CCOCC2)c(-c2cc3c([nH]2)C(=O)NC3)c1` [Compound 96], the GI50 in data set [1] stood at 0.59 nM. The IC50 in the data set with K562 cells came to 4.7 nM.

As to `O=C(Nc1ccc(OC(F)(F)Cl)cc1)c1cnc(N2CCOCC2)c(-c2cc3c([nH]2)C(=O)NCC3)c1` [Compound 97], the GI50 in data set [1] stood at 2.3 nM. Also, the IC50 with K562 cells is 5.7 nM.

With `O=C(Nc1ccc(OC(F)(F)Cl)cc1)c1cnc(N2CC(O)C2)c(-c2cc3c([nH]2)C(=O)NCC3)c1` [Compound 98], the GI50 in data set [1] was found to be 3.8 nM. In the data set with K562 cells, the IC50 was determined as 4.7 nM.

As to `O=C(Nc1ccc(OC(F)(F)Cl)cc1)c1cnc(N2CC[C@@H](O)C2)c(-c2cc3c([nH]2)C(=O)NCC3)c1` [Compound 99], the GI50 in data set [1] amounted to 1.4 nM. Besides, the IC50 with K562 cells was 3.2 nM.

As to `CN(C)c1ncc(C(=O)Nc2ccc(OC(F)(F)Cl)cc2)cc1-c1cc2c([nH]1)C(=O)NC2` [Compound 109], the GI50 in data set [1] is 0.27 nM. For the same compound, the IC50 in the data set on K562 cells turned out to be 0.95 nM.

Turning to `CNc1ncc(C(=O)Nc2ccc(OC(F)(F)Cl)cc2)cc1-c1cc2c([nH]1)C(=O)NC2` [Compound 110], the GI50 in data set [1] came out at 0.44 nM. For the same compound, the IC50 in the data set with K562 cells stood at 3.1 nM.

For the compound `CN1Cc2cc(-c3cc(C(=O)Nc4ccc(OC(F)(F)Cl)cc4)cnc3N3CC[C@@H](O)C3)[nH]c2C1=O` [Compound 111], the GI50 in data set [1] was determined as 0.16 nM. In the data set with K562 cells, the IC50 turned out to be 0.5 nM.

Take `CN1Cc2cc(-c3cc(C(=O)Nc4ccc(OC(F)(F)Cl)cc4)cnc3N3CC(O)C3)[nH]c2C1=O` [Compound 112]: the GI50 in data set [1] was 0.29 nM. The IC50 in the data set on K562 cells was found to be 0.54 nM.

Turning to `O=C(Nc1ccc(OC(F)(F)Cl)cc1)c1cnc(N2CC[C@@H](O)C2)c(-c2cc3c([nH]2)C(=O)N(C2CC2)C3)c1` [Compound 113], the GI50 in data set [1] came out at 0.18 nM. In the data set on K562 cells, the IC50 is 0.62 nM.

Turning to `O=C(Nc1ccc(OC(F)(F)Cl)cc1)c1cnc(N2CC(O)C2)c(-c2cc3c([nH]2)C(=O)N(C2CC2)C3)c1` [Compound 114], the GI50 in data set [1] turned out to be 0.21 nM. Besides, the IC50 in the data set with K562 cells came to 0.56 nM.

Consider `CN1CCc2cc(-c3cc(C(=O)Nc4ccc(OC(F)(F)Cl)cc4)cnc3N3CCOCC3)[nH]c2C1=O` [Compound 115], for which the GI50 in data set [1] is 3 nM. Moreover, in the data set on K562 cells, the IC50 worked out at 5.5 nM.

Regarding `O=C(Nc1ccc(OC(F)(F)Cl)cc1)c1ccc(N2CC[C@@H](O)C2)c(-c2cc3c([nH]2)C(=O)NC3)c1` [Compound 116], the GI50 in data set [1] came to 0.12 nM. Further, the IC50 in the data set on K562 cells stood at 0.82 nM.

In the case of `O=C(Nc1ccc(OC(F)(F)Cl)cc1)c1ccc(N2CC(O)C2)c(-c2cc3c([nH]2)C(=O)NC3)c1` [Compound 117], the GI50 in data set [1] worked out at 0.15 nM. In addition, the IC50 in the data set on K562 cells amounted to 1 nM.

Consider `O=C(Nc1ccc(OC(F)(F)Cl)cc1)c1ccc(N2CC(O)C2)c(-c2cc3c([nH]2)C(=O)N(C2CC2)C3)c1` [Compound 120], for which, in data set [1], the GI50 is 0.084 nM. Moreover, the IC50 in the data set with K562 cells is 0.21 nM.

As usually defined, the IC50 is the point on the concentration scale where inhibition reaches its midpoint. Broadly, the Cmax is the maximum level reached in the sampled fluid or tissue. Usually Tmax stands for the time at which the peak concentration occurs. Usually half-life stands for the time in which the quantity being followed falls by half. High values mean slow loss, low ones fast loss.
